Source: PubChem BioAssay AID248 (DTP/NCI, 2004)
Where “and” joins values, the source holds several entries; their conditions need not be identical. Identical values can stand only once. Inconclusive results and toxic doses are left out. Rule as the data show it: active = T/C of 150% or more; inactive = T/C below 125%. Peptide text beside a SMILES is read from it. * marks the point of attachment. Cbz = O=C(OCc1ccccc1)*

Tested on: L1210 leukemia ip in BDF1 mice, survival T/C
Test: NCI In Vivo Anticancer Drug Screen. Data for tumor model L1210 Leukemia (intraperitoneal) in B6D2F1 (BDF1) mice
Conditions: endpoint: mean survival time, higher = longer survival
Procedure, shortened: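 Tumor cells were implanted, animals were treated, and survival was followed. The result divides the treated measurement by the vehicle-control measurement.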

[1] = dose: 100.0 mg/kg/injection, schedule: Q01DX009 (ip), vehicle: Klucel (hydroxypropylcellulose) (HPC)
[2] = dose: 100.0 mg/kg/injection, schedule: Q04DX003 (ip), vehicle: Klucel (hydroxypropylcellulose) (HPC)
[3] = dose: 200.0 mg/kg/injection, schedule: Q04DX003 (ip), vehicle: Klucel (hydroxypropylcellulose) (HPC)
[4] = dose: 400.0 mg/kg/injection, schedule: Q04DX003 (ip), vehicle: Klucel (hydroxypropylcellulose) (HPC)
[5] = dose: 100.0 mg/kg/injection, schedule: Q01DX001 (ip), vehicle: saline
[6] = dose: 100.0 mg/kg/injection, schedule: Q01DX009 (ip), vehicle: saline
[7] = dose: 100.0 mg/kg/injection, schedule: Q04DX003 (ip), vehicle: saline
[8] = dose: 200.0 mg/kg/injection, schedule: Q01DX001 (ip), vehicle: saline
[9] = dose: 200.0 mg/kg/injection, schedule: Q01DX009 (ip), vehicle: saline
[10] = dose: 200.0 mg/kg/injection, schedule: Q04DX003 (ip), vehicle: saline
[11] = dose: 400.0 mg/kg/injection, schedule: Q01DX001 (ip), vehicle: saline
[12] = dose: 400.0 mg/kg/injection, schedule: Q01DX009 (ip), vehicle: saline
[13] = dose: 400.0 mg/kg/injection, schedule: Q04DX003 (ip), vehicle: saline
[14] = dose: 200.0 mg/kg/injection, schedule: Q01DX009 (ip), vehicle: Klucel (hydroxypropylcellulose) (HPC)
[15] = dose: 400.0 mg/kg/injection, schedule: Q01DX009 (ip), vehicle: Klucel (hydroxypropylcellulose) (HPC)
[16] = dose: 100.0 mg/kg/injection, schedule: Q04DX003 (ip), vehicle: saline with Tween-80
[17] = dose: 200.0 mg/kg/injection, schedule: Q04DX003 (ip), vehicle: saline with Tween-80
[18] = dose: 100.0 mg/kg/injection, schedule: Q04DX002 (ip), vehicle: Klucel (hydroxypropylcellulose) (HPC)
[19] = dose: 200.0 mg/kg/injection, schedule: Q04DX002 (ip), vehicle: Klucel (hydroxypropylcellulose) (HPC)
[20] = dose: 100.0 mg/kg/injection, schedule: Q01DX001 (ip), vehicle: other
[21] = dose: 200.0 mg/kg/injection, schedule: Q01DX001 (ip), vehicle: other
[22] = dose: 400.0 mg/kg/injection, schedule: Q01DX001 (ip), vehicle: other

Measured: T/C

Cc1ccccc1N=C(N)N=C(N)N
inactive: dose: 25.0 mg/kg/injection, schedule: Q01DX009 (ip), vehicle: Klucel (hydroxypropylcellulose) (HPC) 93 % of control | dose: 25.0 mg/kg/injection, schedule: Q04DX003 (ip), vehicle: Klucel (hydroxypropylcellulose) (HPC) 95 % of control | dose: 50.0 mg/kg/injection, schedule: Q01DX009 (ip), vehicle: Klucel (hydroxypropylcellulose) (HPC) 90 % of control | dose: 50.0 mg/kg/injection, schedule: Q04DX003 (ip), vehicle: Klucel (hydroxypropylcellulose) (HPC) 103 % of control | [1] 98 % of control and 92 % of control | [2] 100 % of control and 90 % of control

COc1ccc(OC)c(NC(=O)Oc2ccc(SC)cc2)c1
inactive: [2] 86 % of control | [3] 88 % of control | [4] 86 % of control

CC(=O)OC12C=CC(C(C)=C1)C1C(=O)C=CC(=O)C12 (stereo not given)
inactive: [5] 103 % of control | [6] 98 % of control | [7] 103 % of control | [8] 97 % of control | [9] 89 % of control | [10] 103 % of control | [11] 97 % of control | [12] 90 % of control | [13] 87 % of control

ON(Cc1ccccc1)Cc1ccccc1
inactive: [1] 98 % of control | [2] 103 % of control | [14] 107 % of control | [3] 102 % of control | [15] 98 % of control | [4] 100 % of control

Oc1ccc(O)c2c1C1C=CC2CC1
inactive: [5] 96 % of control | [8] 105 % of control | [11] 98 % of control

O=NN(CCCl)C(=O)Nc1cccc(C(=O)O)c1
inactive: dose: 0.62 mg/kg/injection, schedule: Q01DX001 (ip), vehicle: carboxymethylcellulose (CMC) 117 % of control | dose: 5.0 mg/kg/injection, schedule: Q01DX001 (ip), vehicle: carboxymethylcellulose (CMC) 123 % of control | dose: 12.0 mg/kg/injection, schedule: Q01DX001 (ip), vehicle: saline 121 % of control

O=C(CN1CCOCC1)Nc1ccc(S(=O)(=O)c2ccc(Cl)cc2)cc1
inactive: [16] 101 % of control | [17] 101 % of control | dose: 400.0 mg/kg/injection, schedule: Q04DX003 (ip), vehicle: saline with Tween-80 95 % of control

COCCOCCOCCOCCOCCN
inactive: [6] 96 % of control | [9] 93 % of control | [12] 98 % of control

O=C(Cc1ccccn1)c1ccccc1
inactive: [2] 96 % of control | [3] 96 % of control | [4] 92 % of control

O=P(O)(CP(=O)(c1ccccc1)c1ccccc1)c1ccccc1
inactive: [18] 94 % of control | [19] 94 % of control

Clc1nc(Cl)n2c(Cl)cncc12
inactive: dose: 25.0 mg/kg/injection, schedule: Q04DX003 (ip), vehicle: saline with Tween-80 96 % of control | dose: 50.0 mg/kg/injection, schedule: Q04DX003 (ip), vehicle: saline with Tween-80 103 % of control | [16] 96 % of control

OC1CCCC(c2ccccc2)C1 (stereo not given)
inactive: [1] 97 % of control | [14] 97 % of control | [15] 95 % of control

CC(NC(=O)C(F)(F)F)C(=O)O (stereo not given)
inactive: [6] 92 % of control | [7] 103 % of control | [9] 95 % of control | [10] 93 % of control | [12] 113 % of control | [13] 97 % of control

Cc1ccc(C)c(CCl)c1
inactive: dose: 75.0 mg/kg/injection, schedule: Q01DX001 (ip), vehicle: saline 101 % of control | dose: 150.0 mg/kg/injection, schedule: Q01DX001 (ip), vehicle: saline 95 % of control

NC(=O)CNC(=O)CNC(=O)OCc1ccccc1 (Cbz-Gly-Gly-NH2)
inactive: dose: 100.0 mg/kg/injection, schedule: Q01DX009 (ip), vehicle: saline with Tween-80 100 % of control | dose: 200.0 mg/kg/injection, schedule: Q01DX009 (ip), vehicle: saline with Tween-80 92 % of control | dose: 400.0 mg/kg/injection, schedule: Q01DX009 (ip), vehicle: saline with Tween-80 92 % of control

COC1(c2ccccc2)c2cc3ccccc3cc2C(OC)(c2ccccc2)c2cc3ccccc3cc21 (stereo not given)
inactive: [18] 98 % of control | [19] 109 % of control | dose: 400.0 mg/kg/injection, schedule: Q04DX002 (ip), vehicle: Klucel (hydroxypropylcellulose) (HPC) 95 % of control

COc1ccccc1NC(=O)Nc1cc(C)ccc1C
inactive: [1] 88 % of control | [2] 90 % of control | [14] 92 % of control | [3] 95 % of control | [15] 88 % of control | [4] 88 % of control

O=C1NC(=O)C(c2ccccc2)O1 (stereo not given)
inactive: [20] 92 % of control | [21] 103 % of control | [22] 97 % of control

CN(CC(=O)O)CC1C(c2ccccc2)C1c1ccccc1 (stereo not given)
inactive: [18] 100 % of control | [19] 93 % of control

CCCCCCCCN1CCCC(OC(=O)N(C)C)C1 (stereo not given)
inactive: dose: 25.0 mg/kg/injection, schedule: Q04DX002 (ip), vehicle: saline 106 % of control | dose: 50.0 mg/kg/injection, schedule: Q04DX002 (ip), vehicle: saline 95 % of control | dose: 100.0 mg/kg/injection, schedule: Q04DX002 (ip), vehicle: saline 112 % of control

CN=NC(=O)c1cccc2c1-c1ccccc1C2=O
inactive: [20] 87 % of control | [21] 96 % of control | [22] 93 % of control

Cn1c(=O)c2[nH]cnc2n(C)c1=O (tested in a mixture with another compound)
inactive: [16] 97 % of control | [17] 96 % of control
